“Also recorded” adds a separate entry of the source.

One experiment concerns the target T1, Aβ aggregates (Homo sapiens, UniProt P05067).
T1 construct: compound and antibody double staining of Aβ or tau aggregates; from tissue; host or cells: human AD brain tissue sections (20 μm)
Nature of the experiment: Compound and antibody 4G8 double staining of AD brain tissue sections. Type of experiment: binding. The note with it: for Overlap between Fluorescence from tested compound and fluorescence from 4G8 observed / Fluorescence from tested compound observed / Staining of / selectivity for Aβ and tau aggregates in AD brain sections: 100 nM compound; for Overlap between Fluorescence from tested compound and fluorescence from 4G8 observed / Fluorescence from tested compound observed: human AD brain tissue sections; for Overlap between Fluorescence from tested compound and fluorescence from 4G8 observed: Aβ antibody 4G8; for Fluorescence from tested compound observed: double staining with Aβ antibody 4G8; for Staining of / selectivity for Aβ and tau aggregates in AD brain sections: stained in combination with 4G8; for Fluorescence from 4G8 observed: signal of Aβ antibody 4G8 in the section stained with 100 nM of the compound. As to the method: (§1) To achieve compound and antibody double staining of Aβ or tau aggregates, tissue sections (20 μm) from human AD brain were fixed in 70% EtOH at 4° C. for 3 min, rehydrated in distilled water and then incubated in PBS for 30 min. Sections were blocked and permeabilized in PBS with 5% normal goat serum and 0.1% triton X-100 (blocking buffer) for 1 h at room temperature (RT). Antibody 4G8 (Biolegend, San Diego, Calif., USA) reactive to Aβ, and AT100 (Thermo Fisher Scientific, Waltham, Mass., USA) directed against tau phosphorylated at […] (3) were diluted 1:500 and 1:1000, respectively, in blocking buffer and added to the sections. After 16 h incubation at 4° C. unbound antibody was removed by washing in PBS with 0.1% triton X-100 (PBS-T) 3×10 min. To visualize antibody binding to Aβ or tau aggregates sections were incubated with goat anti-mouse secondary antibody labelled with Alexa 647 (Thermo Fisher Scientific). The antibody was diluted 1:200 in blocking buffer and after 1 h incubation at RT sections were washed in PBS 3×10 min. Example Compound 3a, Example Compound 3b, Example Compound 3c, Example Compound 3d, Example Compound 3e, Example Compound 3f, Example Compound 3g, Example Compound 3h, Example Compound 3i, Example Compound 3j, Example Compound 3k, Example Compound 3m, Example Compound 3n, Example Compound 3o, Example Compound 3p, Example Compound 3q, Example Compound 3r, Example Compound 3s, Example Compound 3t, Example Compound 3u, Example Compound 8a, Comparative Example 1, Comparative Example 2, Comparative Example 3 and Comparative Example 4 were dissolved in DMSO to a concentration of 1.5 mM and then further diluted in PBS to a final concentration of 100 nM compound prior to staining. The tissue sections were then stained for 30 min at RT with these freshly prepared solutions containing 100 nM of the respective compound in PBS. After three washes in PBS the sections were mounted in Dako mounting medium for fluorescence (Dako Cytomation, Glostrup, Denmark) and allowed to dry overnight before analysis. Fluorescence images were collected using an inverted LSM 780 confocal microscope (Carl Zeiss, Oberkochen, Germany) with the following excitation/emission wavelengths optimized for each compound: 458/484-600 (Comparative Example 1, Comparative Example 3), 561/569-648 (Example Compound 3a, Example Compound 3b, Example Compound 3c, Example Compound 3d, Example Compound 3e, Example Compound 3f, Example Compound 3g, Example Compound 3h, Example Compound 3i, Example Compound 3j, Example Compound 3k, Example Compound 3m, Example Compound 3n, Example Compound 3o, Example Compound 3p, Example Compound 3q, Example Compound 3r, Example Compound 3s, Example Compound 3t, Example Compound 3u, Example Compound 8a, Comparative Example 2 and Comparative Example 4) and 633/638-755 (Alexa 647). To visualize autofluorescent lipofuscin excitation/emission wavelengths 405/410-480 or 405/410-514 were used.

Another experiment concerns the target T2, tau aggregates (Homo sapiens, UniProt P10636).
T2 construct: tissue sections (20 μm) from human AD brain; from tissue; host or cells: human AD brain tissue sections (20 μm)
Nature of the experiment: Compound and antibody AT100 double staining of AD brain tissue sections. Type of experiment: binding. Conditions: for Labelling of immune-positive NFTs and dystrophic neurites / Fluorescence from tested compound observed / Overlap between Fluorescence from tested compound and fluorescence from AT-100 observed: 100 nM compound; for Labelling of immune-positive NFTs and dystrophic neurites: AT100 co-staining, AD brain sections; for Fluorescence from tested compound observed / Overlap between Fluorescence from tested compound and fluorescence from AT-100 observed: human AD brain tissue sections; for Fluorescence from tested compound observed: double staining with tau antibody AT-100; for Overlap between Fluorescence from tested compound and fluorescence from AT-100 observed: tau antibody AT-100; for Fluorescence from AT-100 observed: signal of tau antibody AT-100 in the section stained with 100 nM of the compound. As for the experimental part:
as §1

T1 sequence (P05067 672-713 limits assumed): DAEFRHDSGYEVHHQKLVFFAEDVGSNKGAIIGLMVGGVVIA
T2 sequence (P10636 1-441 isoform P10636-8): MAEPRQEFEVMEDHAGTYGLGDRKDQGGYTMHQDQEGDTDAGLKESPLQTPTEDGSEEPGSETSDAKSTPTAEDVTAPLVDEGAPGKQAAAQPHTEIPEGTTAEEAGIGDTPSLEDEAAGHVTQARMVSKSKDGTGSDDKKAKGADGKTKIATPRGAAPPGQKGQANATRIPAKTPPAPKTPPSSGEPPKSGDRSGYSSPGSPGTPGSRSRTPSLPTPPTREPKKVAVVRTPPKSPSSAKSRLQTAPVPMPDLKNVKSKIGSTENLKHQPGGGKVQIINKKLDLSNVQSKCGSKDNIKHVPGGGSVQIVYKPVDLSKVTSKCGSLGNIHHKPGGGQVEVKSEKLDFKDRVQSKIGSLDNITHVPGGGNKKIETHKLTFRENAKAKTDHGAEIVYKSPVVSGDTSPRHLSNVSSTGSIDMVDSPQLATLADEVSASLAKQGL

For `CCn1c(/C=C/c2ccc(-c3ccc(C(=O)OC)s3)s2)nc2ccccc21` [Comparative Example 1], on Aβ aggregates, the “Overlap between Fluorescence from tested compound and fluorescence from 4G8 observed” value (“Overlap between Fluorescence … from 4G8 observed” below) is “yes”; the “Fluorescence from tested compound observed” value is on record as “Yes”; the “Staining of / selectivity for Aβ and tau aggregates in AD brain sections” value (shortened to “Staining of / selectivity”) is recorded as “staining towards immune-positive Aβ aggregates, as well as some weak staining of tau-like pathology; also recorded: selectivity for Aβ”; the “Fluorescence from 4G8 observed” value is reported as “yes”.
As for `COC(=O)Cc1cc(-c2ccc(-c3nc4ccccc4s3)s2)sc1-c1cc(C(=O)OC)cs1` [Comparative Example 2], at Aβ aggregates, the “Fluorescence from tested compound observed” value was “no”; the “Staining of / selectivity” value is “did not display any substantial staining; also recorded: no staining”; the “Fluorescence from 4G8 observed” value is on record as “yes”.
For the compound `O=C(O)Cc1cc(-c2ccc(-c3nc4ccccc4s3)s2)sc1-c1cc(C(=O)O)cs1` [Comparative Example 3], at Aβ aggregates, the “Overlap between Fluorescence … from 4G8 observed” value is on record as “yes”; the “Fluorescence from tested compound observed” value is “yes”; the “Staining of / selectivity” value is “staining of both Aβ and tau aggregates; also recorded: no selectivity”; the “Fluorescence from 4G8 observed” value is “yes”.
In the case of `COC(=O)c1csc(-c2ccc(-c3ccc(-c4nc5ccccc5s4)s3)s2)c1` [Comparative Example 4], at Aβ aggregates, the “Fluorescence from tested compound observed” value is recorded as “no”; the “Staining of / selectivity” value is “did not display any substantial staining; also recorded: no staining”; the “Fluorescence from 4G8 observed” value is “yes”.
On to `CC[n+]1c(/C=C/c2ccc(-c3cccs3)s2)sc2ccccc21` [Example Compound 3c], for which, on Aβ aggregates, the “Overlap between Fluorescence … from 4G8 observed” value is “no correlation and no”; the “Fluorescence from tested compound observed” value is on record as “yes”; the “Fluorescence from 4G8 observed” value is reported as “yes”. Besides, on tau aggregates, the “Labelling of immune-positive NFTs and dystrophic neurites” value (“Labelling” for short) is “labelled both immune-positive NFTs and dystrophic neurites”; the “Fluorescence from tested compound observed” value is on record as “yes”; the “Overlap between Fluorescence from tested compound and fluorescence from AT-100 observed” value was “yes”; the “Fluorescence from AT-100 observed” value was “yes”.
For `CC[n+]1c(/C=C/c2ccc(-c3ccc(CC(=O)OC)s3)s2)sc2ccccc21.[I-]` [Example Compound 3d], at Aβ aggregates, the “Overlap between Fluorescence … from 4G8 observed” value is “no correlation and no”; the “Fluorescence from tested compound observed” value is recorded as “yes”; the “Fluorescence from 4G8 observed” value was “yes”. Besides, on tau aggregates, the “Labelling” value is “labelled both immune-positive NFTs and dystrophic neurites”; the “Fluorescence from tested compound observed” value is recorded as “yes”; the “Overlap between Fluorescence from tested compound and fluorescence from AT-100 observed” value is “yes”; the “Fluorescence from AT-100 observed” value was “yes”.
As to `CC[n+]1c(/C=C/c2ccc(-c3ccc(C(=O)OC)s3)s2)sc2cc(OC)ccc21.[I-]` [Example Compound 3e], at Aβ aggregates, the “Overlap between Fluorescence … from 4G8 observed” value is “no correlation and no”; the “Fluorescence from tested compound observed” value was “yes”; the “Fluorescence from 4G8 observed” value was “yes”. Moreover, at tau aggregates, the “Labelling” value was “labelled both immune-positive NFTs and dystrophic neurites”; the “Fluorescence from tested compound observed” value was “yes”; the “Overlap between Fluorescence from tested compound and fluorescence from AT-100 observed” value is “yes”; the “Fluorescence from AT-100 observed” value is “yes”.
Consider `COC(=O)c1ccc(-c2ccc(/C=C/c3sc4ccccc4[n+]3C)s2)s1.[I-]` [Example Compound 3f], for which, on Aβ aggregates, the “Overlap between Fluorescence … from 4G8 observed” value was “no correlation and no”; the “Fluorescence from tested compound observed” value is “yes”; the “Fluorescence from 4G8 observed” value is “yes”. At tau aggregates, the “Labelling” value is “labelled both immune-positive NFTs and dystrophic neurites”; the “Fluorescence from tested compound observed” value is reported as “yes”; the “Overlap between Fluorescence from tested compound and fluorescence from AT-100 observed” value was “yes”; the “Fluorescence from AT-100 observed” value is on record as “yes”.
As to `CC[CH-][n+]1c(/C=C/c2ccc(-c3ccc(C(=O)OC)s3)s2)sc2ccccc21` [Example Compound 3g], at Aβ aggregates, the “Overlap between Fluorescence … from 4G8 observed” value was “no correlation and no”; the “Fluorescence from tested compound observed” value is “yes”; the “Fluorescence from 4G8 observed” value is “yes”. Moreover, on tau aggregates, the “Labelling” value is “labelled both immune-positive NFTs and dystrophic neurites”; the “Fluorescence from tested compound observed” value is reported as “yes”; the “Overlap between Fluorescence from tested compound and fluorescence from AT-100 observed” value is “yes”; the “Fluorescence from AT-100 observed” value is reported as “yes”.
Regarding `CC[n+]1c(/C=C/c2ccc(-c3ccc(OC)s3)s2)sc2ccccc21.[I-]` [Example Compound 3h], on Aβ aggregates, the “Overlap between Fluorescence … from 4G8 observed” value was “no correlation and no”; the “Fluorescence from tested compound observed” value was “yes”; the “Fluorescence from 4G8 observed” value is listed as “yes”. Moreover, at tau aggregates, the “Labelling” value is “labelled both immune-positive NFTs and dystrophic neurites”; the “Fluorescence from tested compound observed” value was “yes”; the “Overlap between Fluorescence from tested compound and fluorescence from AT-100 observed” value is reported as “yes”; the “Fluorescence from AT-100 observed” value is listed as “yes”.
For the compound `CC[n+]1c(/C=C/c2ccc(-c3ccc(C(=O)OC)o3)o2)sc2ccccc21.[I-]` [Example Compound 3i], at Aβ aggregates, the “Overlap between Fluorescence … from 4G8 observed” value was “no correlation and no”; the “Fluorescence from tested compound observed” value is listed as “yes”; the “Fluorescence from 4G8 observed” value is recorded as “yes”. Further, on tau aggregates, the “Labelling” value is “labelled both immune-positive NFTs and dystrophic neurites”; the “Fluorescence from tested compound observed” value is reported as “yes”; the “Overlap between Fluorescence from tested compound and fluorescence from AT-100 observed” value is “yes”; the “Fluorescence from AT-100 observed” value is “yes”.
With `CC[n+]1c(/C=C/c2cnc(-c3ccc(C(=O)OC)s3)s2)sc2ccccc21.[I-]` [Example Compound 3j], on Aβ aggregates, the “Overlap between Fluorescence … from 4G8 observed” value was “no correlation and no”; the “Fluorescence from tested compound observed” value is on record as “yes”; the “Fluorescence from 4G8 observed” value was “yes”. In addition, on tau aggregates, the “Labelling” value was “labelled both immune-positive NFTs and dystrophic neurites”; the “Fluorescence from tested compound observed” value is on record as “yes”; the “Overlap between Fluorescence from tested compound and fluorescence from AT-100 observed” value was “yes”; the “Fluorescence from AT-100 observed” value is “yes”.
Turning to `CC[n+]1c(/C=C/c2ccc(-c3ccc(C(=O)OC)cn3)s2)sc2ccccc21.[I-]` [Example Compound 3k], at Aβ aggregates, the “Overlap between Fluorescence … from 4G8 observed” value was “no correlation and no”; the “Fluorescence from tested compound observed” value is reported as “yes”; the “Fluorescence from 4G8 observed” value is on record as “yes”. For the same compound, at tau aggregates, the “Labelling” value is “labelled both immune-positive NFTs and dystrophic neurites”; the “Fluorescence from tested compound observed” value was “yes”; the “Overlap between Fluorescence from tested compound and fluorescence from AT-100 observed” value was “yes”; the “Fluorescence from AT-100 observed” value is “yes”.
Regarding `CC[n+]1c(/C=C/c2ccc(-c3ccc4c(c3)OCO4)s2)sc2ccccc21.[I-]` [Example Compound 3m], at Aβ aggregates, the “Overlap between Fluorescence … from 4G8 observed” value was “no correlation and no”; the “Fluorescence from tested compound observed” value is given as “yes”; the “Fluorescence from 4G8 observed” value was “yes”. At tau aggregates, the “Labelling” value is “labelled both immune-positive NFTs and dystrophic neurites”; the “Fluorescence from tested compound observed” value is given as “yes”; the “Overlap between Fluorescence from tested compound and fluorescence from AT-100 observed” value is recorded as “yes”; the “Fluorescence from AT-100 observed” value is on record as “yes”.

The record behind these values is US11434237B2, “Selective ligands for tau aggregates” (KARIN & STEN MORTSTEDT CBD SOLUTIONS AB, priority 2017, dated 2022).
